Drawing on patent US12509451B2, “Heteroaryl amide inhibitors of CD38” (NAPA THERAPEUTICS LTD., priority 2020, dated 2025), this text covers IC50 for five compounds.

As a reminder, the IC50 is the concentration that inhibits the measured activity by half.

A value given as a limit tells only on which side of the number the result lay.

The target of test [1] is T1, CD38 NAD+ hydrolase activity in NH7-dCas9 cells (Jurkat clone) (Homo sapiens, UniProt P28907).
T1 construct: The assay utilized CD38 expressing NH7-dCas9 cells (Jurkat clone); host or cells: NH7-dCas9 cells (Jurkat clone)
T1 sequence (P28907 1-300): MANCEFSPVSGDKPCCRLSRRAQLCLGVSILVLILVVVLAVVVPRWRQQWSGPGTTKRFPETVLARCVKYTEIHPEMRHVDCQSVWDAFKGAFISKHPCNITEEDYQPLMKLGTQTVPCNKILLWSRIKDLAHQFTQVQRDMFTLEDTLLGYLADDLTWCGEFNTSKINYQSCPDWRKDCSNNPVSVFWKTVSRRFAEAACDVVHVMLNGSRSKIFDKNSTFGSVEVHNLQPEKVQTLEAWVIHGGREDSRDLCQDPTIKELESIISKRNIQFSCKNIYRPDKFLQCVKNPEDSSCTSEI
As to the kind of experiment: Fluorescence-based NAD+ hydrolase activity assay with human T cell line NH7-dCas9 cells-Jurkat clone (Assay 1). The note with it: read-out: Assay 1 Arithmetic mean IC50. The procedure: For the modified assay, the performance validation criteria of the assay as a High Throughput Screening (HTS): Z-factor within the plate was greater than 0.89 (optimal HTS z-factor >0.5) and the Intra-plate, inter-plate and day to day variability (CV) was less than 20%.
NAD+ hydrolase activity of a human T cell line treated with test compounds was measured using a fluorescence-based assay. NH7-dCas9 cells (Jurkat clone) were provided by the Weissman Lab (UCSF 1700 4th St., Byers Hall, Room 403B, San Francisco, CA 94158-2330). Briefly, cells were centrifuged, resuspended in 44 μl PBS/10^6 cells and plated in a 96 well black plate (CORNING) at a density of 1×10^6 per well.
Each test compound was received in a powder state and dissolved in DMSO as a 25 mM stock solution. Each test compound was serially diluted in order to generate a dose-response curve. The dilution series of each test compound in DMSO was prepared at 50 times the concentrations to be assayed. Each test compound was diluted to generate a 5-fold dilution series of 8 concentrations from 20 μM to 0.256 nM in order to assay 8 final concentrations ranging from 400 nM to 25.6 pM. One μl of the 50× concentration compound series was added to each well of the plate containing 1×10^6 cells in PBS.
Each plate had the following intra plate controls: 3 wells containing cells treated with vehicle only (DMSO), 3 wells of cells treated with the reference compound 78c at a final concentration of 50 nM and 2 wells containing only PBS (used as a background value).
(§1) The reaction was started by adding nicotinamide 1,N^6-etheno-adenine dinucleotide (Sigma Aldrich) to reach a final concentration of 80 µM. The samples were excited at 321-15 nm, and the emission of fluorescence was measured at 410-20 nm at 37° C. every minute for 1 hr in a Clariostar® microplate reader (BMG LABTECH). NAD+ hydrolase activity was calculated as the slope of the linear portion of the fluorescence-time curve using the MARS data analysis software (BMG LABTECH). The data were uploaded in the Collaborative Drug Design (CDD) Software and for each compound the IC50 was calculated by the software. Each compound was tested in 3 independent experiments on 3 separate days to establish the reproducibility of the results. For each plate, the z-factor was also calculated as a plate quality using the CDD software.

Test [2] concerns the target T2, recombinant human CD38 Protein (Homo sapiens, UniProt P28907).
T2 construct: purchased R&D System
T2 sequence (P28907 1-300): T1 sequence (P28907 1-300)
As to the kind of experiment: Fluorescence-based NAD+ hydrolase activity assay with human recombinant CD38 protein (Assay 3). Format: biochemical. The settings on record: read-out: Assay 3 Arithmetic mean IC50. The procedure:
This protocol was modified from the following references (Muller et al. (1983); (Schultz et al. (2018); (Matalonga et al. (2017); and de Oliveira et al. (2018), supra.
NAD+ hydrolase activity of the human recombinant CD38 protein treated with test compounds was measured using a fluorescence-based assay. Briefly, recombinant human CD38 Protein (R&D System) was resuspended in 44 μl/well of Sucrose-Tris Buffer (Sucrose 0.25 M, Tris pH 7.4 40 mM) and plated in a 96-well black plate (CORNING) at a density of 10 ng/well.
Each test compound was received in a powder state and dissolved in DMSO as a 25 mM stock solution. Each test compound was serially diluted in order to generate a dose-response curve. The dilution series of each test compound in DMSO was prepared at 50× the concentrations to be assayed. Each test compound was diluted to generate a 5-fold dilution series of 8 concentrations from 20 μM to 0.256 nM in order to assay 8 final concentrations ranging from ranging from 400 nM to 25.6 pM. One μl of the 50× concentration compound series was added to each well of the plate containing 10 ng protein in Sucrose-Tris buffer.
as §1, with “started” for “started by”, “nm” for “nm,”, “Each compound was tested in 3 independent experiments on 3 separate days to establish the reproducibility of the results.” left out

In test [3] the target is T2, recombinant human CD38 Protein. As to the kind of experiment: Fluorescence-based NAD+ cyclase activity assay with human recombinant CD38 protein (Assay 2). The format is biochemical. The settings on record: read-out: Assay 2 Arithmetic mean IC50. The procedure:
This protocol was modified from the de Oliveira et al., 2018 reference, supra.
NAD+ cyclase activity of the human recombinant CD38 protein treated with test compounds was measured using a fluorescence-based assay. Briefly, recombinant human CD38 Protein (R&D System) was resuspended in 44 μl/well of Sucrose-Tris Buffer (Sucrose 0.25 M, Tris pH 7.4 40 mM) and plated in a 96-well black plate (CORNING) at a density of 125 ng/well.
(§2) Each test compound was received in a powder state and dissolved in DMSO as a 25 mM stock solution. Each test compound was serially diluted in order to generate a dose-response curve. The dilution series of each test compound in DMSO was prepared at 50 times the concentrations to be assayed. Each test compound was diluted to generate a 5-fold dilution series of 8 concentrations from 100 μM to 32 nM in order to assay 8 final concentrations ranging from 2 μM to 0.64 nM. One μl of the 50× concentration compound series was added to each well of the plate containing 125 ng of protein in Sucrose-Tris buffer.
The reaction was started adding nicotinamide guanine dinucleotide (NGD+) (Sigma Aldrich) to reach a final concentration of 150 µM. The samples were excited at 337-15 nm, and the emission of fluorescence was measured at 442-20 nm at 37° C. every minute for 1 hr in a Clariostar microplate reader (BMG LABTECH). NAD+ cyclase activity was calculated as the slope of the linear portion of the fluorescence-time curve using the MARS data analysis software (BMG LABTECH). The data were uploaded in the Collaborative Drug Design (CDD) Software, and for each compound the IC50 was calculated by the software. For each plate, the z-factor was also calculated as a plate quality using the CDD software.

Test [4] deals with T3, recombinant mouse CD38 Protein (Mus musculus, UniProt P56528).
T3 construct: purchased R&D System
T3 sequence (P56528 1-304): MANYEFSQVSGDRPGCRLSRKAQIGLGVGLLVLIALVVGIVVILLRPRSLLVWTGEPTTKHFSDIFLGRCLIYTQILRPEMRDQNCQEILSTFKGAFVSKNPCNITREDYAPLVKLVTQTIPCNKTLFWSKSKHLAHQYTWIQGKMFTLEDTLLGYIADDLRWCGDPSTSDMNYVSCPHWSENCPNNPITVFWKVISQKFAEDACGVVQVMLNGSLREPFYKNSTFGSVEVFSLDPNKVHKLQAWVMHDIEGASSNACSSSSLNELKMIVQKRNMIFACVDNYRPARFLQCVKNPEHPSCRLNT
Put plainly: Fluorescence-based NAD+ cyclase activity assay with mouse recombinant CD38 protein (Assay 4). The note with it: read-out: Assay 4 Arithmetic mean IC50. Format: biochemical. The procedure: This protocol was modified from de Oliveira et al. (2018) supra.
NAD+ cyclase activity of the […] recombinant CD38 protein treated with test compounds was measured using a fluorescence-based assay. Briefly, recombinant mouse CD38 Protein (R&D System) was resuspended in 44 μl/well of Sucrose-Tris Buffer (Sucrose 0.25 M, Tris pH 7.4 40 mM) and plated in a 96-well black plate (CORNING) at a density of 32 ng/well.
as §2
Each plate had the following intra plate controls: 3 wells containing cells treated with vehicle only (DMSO), 3 wells of cells treated with the reference compounds 78c at a final concentration of 500 nM and 2 wells containing only Sucrose-Tris buffer (used as a background value).
The reaction was started adding nicotinamide guanine dinucleotide (NGD+) (Sigma Aldrich) to reach a final concentration of 150 µM. The samples were excited at 337-15 nm and the emission of fluorescence was measured at 442-20 nm at 37° C. every minute for 1 hr in a Clariostar® microplate reader (BMG LABTECH). NAD+ cyclase activity was calculated as the slope of the linear portion of the fluorescence-time curve using the MARS data analysis software (BMG LABTECH). The data were uploaded in the Collaborative Drug Design (CDD) Software and for each compound the IC50 was calculated by the software. Each compound was tested in 3 independent experiments on 3 separate days to establish the reproducibility of the results. For each plate, the z-factor was also calculated as a plate quality using the CDD software.

Test [5] addresses T3, recombinant mouse CD38 Protein. As to the kind of experiment: Fluorescence-based NAD+ hydrolase activity assay with mouse recombinant CD38 protein (Assay 5). The format is biochemical. The note with it: read-out: Assay 5 Arithmetic mean IC50. The procedure: This protocol was modified from the following references: Muller et al. (1983); Schultz et al. (2018); Matalonga et al. (2017); and de Oliveira et al. (2018), supra.
NAD+ hydrolase activity of the mouse recombinant CD38 protein treated with test compounds was measured using a fluorescence-based assay. Briefly, recombinant mouse CD38 Protein (R&D System) was resuspended in 44 μl/well of Sucrose-Tris Buffer (Sucrose 0.25 M, Tris pH 7.4 40 mM) and plated in a 96 well black plate (CORNING) at a density of 2.5 ng/well.
Each test compound was received in a powder state and dissolved in DMSO as a 25 mM stock solution. Each test compound was serially diluted in order to generate a dose-response curve. The dilution series of each test compound in DMSO was prepared at 50 times the concentrations to be assayed. Each test compound was diluted to generate a 5-fold dilution series of 8 concentrations from 20 μM to 0.256 nM in order to assay 8 final concentrations ranging from 400 nM to 25.6 pM. One μl of the 50× concentration compound series was added to each well of the plate containing 2.5 ng of protein in Sucrose-Tris buffer.
Each plate had the following intra plate controls: 3 wells containing cells treated with vehicle only (DMSO), 3 wells of cells treated with the reference compounds 78c at a final concentration of 50 nM and 2 wells containing only Sucrose-Tris buffer (used as a background value).
as §1, with “started” for “started by”, “nm” for “nm,”, “Clariostar Microplate®” for “Clariostar® microplate”

Consider `Cc1cc(NC(=O)c2cccc(-n3ccnc3)n2)cc(C#N)n1` [Compound 4], for which the IC50 is less than 1 nM in test [1], less than 1 nM in test [2] and 51 to 1000 nM in test [3].

With `O=C(Nc1cc(F)nc(F)c1)c1cccc(-n2ccnc2)n1` [Compound 5], the IC50 in test [1] was less than 1 nM; in test [2] it was less than 1 nM; in test [3] it was 51 to 1000 nM.

Regarding `CCOC(=O)c1cc(NC(=O)c2cccc(-n3ccnc3)n2)ccn1` [Compound 6], the IC50 in test [1] is less than 1 nM; in test [2], 1 to 50 nM; in test [3], 51 to 1000 nM.

For `CC1(Oc2cc(C(=O)Nc3ccnc(C(F)(F)F)c3)nc(-n3ccnc3)n2)COC1` [Compound 41], the concentration for half-maximal inhibition (IC50) in test [4] is 51 to 1000 nM; in test [5], 1 to 50 nM.

As for `O=C(Nc1cccnc1)c1cncc(-n2ccnc2)n1` [Compound 70], the IC50 in test [1] was less than 1 nM; in test [2] it was less than 1 nM; in test [3], 1000 to 10000 nM.
